For assay [1], the target named is T1, glucocorticoid receptor (Rattus norvegicus, UniProt P06536).
T1 sequence (P06536 1-795): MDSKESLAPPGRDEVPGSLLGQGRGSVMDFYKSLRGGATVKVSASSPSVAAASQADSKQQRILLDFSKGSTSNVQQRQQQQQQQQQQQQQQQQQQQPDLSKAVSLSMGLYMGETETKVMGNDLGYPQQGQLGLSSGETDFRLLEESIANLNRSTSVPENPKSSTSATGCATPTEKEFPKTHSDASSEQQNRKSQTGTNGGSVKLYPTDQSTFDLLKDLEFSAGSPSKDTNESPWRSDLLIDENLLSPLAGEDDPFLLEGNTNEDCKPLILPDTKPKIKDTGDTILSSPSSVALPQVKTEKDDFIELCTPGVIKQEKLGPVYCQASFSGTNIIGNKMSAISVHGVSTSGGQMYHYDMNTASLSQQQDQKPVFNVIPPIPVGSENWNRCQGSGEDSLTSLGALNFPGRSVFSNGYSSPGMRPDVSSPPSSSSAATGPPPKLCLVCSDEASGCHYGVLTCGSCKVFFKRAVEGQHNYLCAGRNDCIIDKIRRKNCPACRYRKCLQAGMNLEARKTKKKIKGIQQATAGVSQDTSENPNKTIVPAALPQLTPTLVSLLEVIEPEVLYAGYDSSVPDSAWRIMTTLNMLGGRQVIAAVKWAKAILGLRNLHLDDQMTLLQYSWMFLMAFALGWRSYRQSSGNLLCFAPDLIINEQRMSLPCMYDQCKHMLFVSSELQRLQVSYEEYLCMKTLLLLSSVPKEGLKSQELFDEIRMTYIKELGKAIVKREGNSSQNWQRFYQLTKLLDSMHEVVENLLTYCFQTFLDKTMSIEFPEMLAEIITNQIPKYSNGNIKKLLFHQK
In words: Glucocorticoid activity bioassay, CC1 cells cotransfected with GRE2-TATA-Luc and glucocorticoid receptor expression plasmid. Format: cell-based. On the set-up: expressed in transfected cells; host or cells: CC1 cells (permanent rat liver cell line), transiently cotransfected with pSTC-rGR and GRE2-TATA-Luc. Particulars: for corticosteroid (glucocorticoid) activity of corticosterone:BSA derivatives / glucocorticoid activity (luciferase induction): CC1 cells; for corticosteroid (glucocorticoid) activity of corticosterone:BSA derivatives: each 200 nM, various induction times; for glucocorticoid activity (luciferase induction): different concentrations, induction time 24 h. As to the method: These cell lines contain endogenous glucocorticoid receptors. Here, steroid concentration—in this case corticosterone concentration—determines the extent of glucocorticoid activity. […] Induction time: 24 h (see also example 12).
(§1) Thus, the following examples always concern transit ntly cotransfected CC1or MH 3924 cell.

In assay [2] the target is T1, glucocorticoid receptor. The procedure: These cell lines contain endogenous glucocorticoid receptors. Here, steroid concentration—in this case corticosterone concentration—determines the extent of glucocorticoid activity. […]
as §1
Determination was carried out as in example 7, however, with MH 3924 cells.

Assay [3] has as its system androgen receptors (AR). In words: Androgen induced luciferase activity in transfected human genital skin fibroblasts (GSF). Format: cell-based. Particulars: mibolerone 2 nM, 24 h incubation; three Luc constructs; strength depends on origin of fibroblasts. From the text:
FIG. 1: Androgen induced luciferase activity in human genital skin fibroblasts (GSF) in culture transfected with three different luciferase gen constructs of different androgen sensitivity (“Lu ”): PRE2-Tk-Luc, MMTV-Luc, GRE2-TATA-Luc
The only steroid hormone receptors present in GSF are androgen receptors (AR). Mibolerone, which is used in this experiment, is a synthetic androgen with anabolic effectiveness. […] Obviously, GE2-TATA-Luc is the most sensitive reporter gene construct of the ones used here (for comparison, see also example 10 with a MMTV promotor reporter gene construct as well as FIG. 10).

Assay [4] deals with androgen receptor (Homo sapiens, UniProt P10275). Conditions: HeLa cells, induction time 24 h.
androgen receptor, sequence (P10275 whole entry): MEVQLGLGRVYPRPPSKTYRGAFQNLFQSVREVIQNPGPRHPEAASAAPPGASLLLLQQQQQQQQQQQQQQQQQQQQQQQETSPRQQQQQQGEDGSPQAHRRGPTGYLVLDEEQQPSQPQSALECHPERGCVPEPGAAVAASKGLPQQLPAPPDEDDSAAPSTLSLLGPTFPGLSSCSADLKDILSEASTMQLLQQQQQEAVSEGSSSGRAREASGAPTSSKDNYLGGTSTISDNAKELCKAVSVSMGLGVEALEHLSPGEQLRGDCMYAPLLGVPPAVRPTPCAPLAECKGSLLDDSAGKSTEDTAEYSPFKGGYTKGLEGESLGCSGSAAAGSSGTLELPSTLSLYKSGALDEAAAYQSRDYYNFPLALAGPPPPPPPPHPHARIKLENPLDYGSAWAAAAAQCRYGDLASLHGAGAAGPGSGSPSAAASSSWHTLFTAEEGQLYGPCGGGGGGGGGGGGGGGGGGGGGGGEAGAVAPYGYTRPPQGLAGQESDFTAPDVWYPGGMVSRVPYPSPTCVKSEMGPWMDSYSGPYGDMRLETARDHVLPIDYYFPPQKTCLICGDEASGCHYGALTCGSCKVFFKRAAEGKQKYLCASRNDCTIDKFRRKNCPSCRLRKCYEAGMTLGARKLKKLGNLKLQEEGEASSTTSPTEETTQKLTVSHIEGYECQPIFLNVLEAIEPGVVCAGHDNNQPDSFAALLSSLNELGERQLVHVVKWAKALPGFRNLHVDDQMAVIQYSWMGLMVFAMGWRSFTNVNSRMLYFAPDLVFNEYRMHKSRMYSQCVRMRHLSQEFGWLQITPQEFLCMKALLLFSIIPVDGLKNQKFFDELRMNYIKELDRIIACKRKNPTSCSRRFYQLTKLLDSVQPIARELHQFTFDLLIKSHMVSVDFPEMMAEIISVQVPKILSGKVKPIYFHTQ
Description: Transfection method in this experiment was the DOTAP method (Boehringer, Mannheim, Germany).
This androgen receptor free cell line was transiently cotransfected with GRE2-TATA-Luc and a recombinant androgen receptor expression plasmid.
The target of assay [5] is T1, glucocorticoid receptor. Conditions: CC1 cells.

Some results are limits rather than exact numbers.

Take 3-CMO-corticosterone:BSA [3:BSA]: the “corticosteroid (glucocorticoid) activity of corticosterone:BSA derivatives” value in assay [1] is “weak”.
As for `C[C@]12C[C@H](O)[C@H]3[C@@H](CCC4=CC(=O)CC[C@@]43C)[C@@H]1CC[C@@H]2C(=O)CO` [corticosterone], the “glucocorticoid activity (luciferase induction)” value in assay [1] was “very active”. The “response of MH 3924 cells compared with response of CC1 cells” value in assay [2] (as in example 7 (24 h)) is “distinctly more sensitive”.
In the case of `C[C@@H]1CC2=CC(=O)CC[C@@H]2[C@H]2CC[C@@]3(C)[C@@H](CC[C@]3(C)O)[C@@H]21` [Mibolerone], the “luciferase activity induced by androgen” value in assay [3] was “luciferase activity of varying strength”.
Take `C[C@]1(O)CC[C@H]2[C@@H]3CCC4=CC(=O)CCC4=C3C=C[C@@]21C` [R1881, methyltrienolone]: in assay [4], the “concentration at which hormone activity (anabolic potency) can already be detected” value came out at 10 pM.
For the molecule `C[C@]12CCC(=O)C=C1CC[C@@H]1[C@@H]2CC[C@@]2(C)[C@H]1CC[C@]2(O)C(=O)CO` [cortexolone, 17α-, 21-dihydroxy-progesterone], the “glucocorticoid activity (luciferase induction)” value in assay [1] is “significant glucocorticoid activity”.
With 21-hemisuccinat-corticosterone:BSA, in assay [1], the “corticosteroid (glucocorticoid) activity of corticosterone:BSA derivatives” value is recorded as “strong”. Besides, the “luciferase induction by corticosterone derivative bound to BSA (glucocorticoid activity)” value in assay [1] (cotransfected CC1 cells) is “luciferase is induced”. Besides, in assay [2] (MH 3924 cells, short term induction of 10 to 30 min (FIG. 4a)), the “concentration at which luciferase induction is easily measurable” value is at most 50 nM.
Regarding `CC#C[C@]1(O)CC[C@H]2[C@@H]3CCC4=CC(=O)CCC4=C3[C@@H](c3ccc(N(C)C)cc3)C[C@@]21C` [RU 38486, mifepristone], in assay [5], the “blocking of luciferase inducing effect of corticosterone and 21-hemisuccinat-corticosterone:BSA (glucocorticoid antagonism)” value is reported as “extensively blocked”.

The record behind these values is US20040023264A1, “Method for determining the peptide hormone activities or the steroid hormone activities of a material or substance mixture” (priority 2000, published 2004).
